According to PMC6796385, “Characterizing potential repelling volatiles for “push-pull” strategy against stem borer: a case study in Chilo auricilius” (BMC Genomics, 2019):

Target: CSP8 (chemosensory protein 8)
Assay: direct fluorescence titration of purified CSP8 with the fluorescent probe, Scatchard plot
Format: binding, Chilo auricilius

## c1ccc(Nc2cccc3ccccc23)cc1 [1-NPN, N-phenyl-1-naphthylamine]
  Kd: 4 ± 0.13 µM
